Literature values in patent US6277886A (priority 1996, dated 2001).

Tested on: MAO-A/MAO-B
Conditions: in vitro; in words; cited from earlier work

C#CCN[C@H]1CCc2ccccc21 [S(-)PAI, S-(-)-N-propargyl-1-aminoindan]
preference for MAO-B or MAO-A: no preference to either substrate
